From patent US10577365B2, “Derivatives of quinoline as inhibitors of DYRK1A and/or DYRK1B kinases” (Felicitex Therapeutics, Inc., priority 2016, dated 2020)
Counter-ions that a name gives are not always drawn.

What was measured:
[1] = target: T1, DYRK1B (Homo sapiens, UniProt Q9Y463); experiment: DYRK1B in vitro kinase assay (ADP-Glo); assay type: biochemical; conditions: ADP-Glo assay, ATP 15 μM (Km), substrate 7 μM, enzyme 1 nM or 0.3 nM, 1 h, rt; read-out: DYRK1B IC50
T1 construct: purchased Carna Bioscence (Carna Biosciences) 04-131
Experimental: The compounds of the present invention were tested for their inhibitory activity against DYRK1A and DYRK1B kinases once or several times. When tested more than once, the data are reported herein as average value, wherein the average value, also referred to as the mean value, represents the sum of obtained values divided by the number of times tested. DYRK-inhibitory activity of the compounds of the present invention was tested using the ADP-Glo™ assay as described in the following paragraphs. The procedure for determining the IC50 values with the ADP-Glo™ assay in in vitro kinase assays consists of two parts: […] Kinase reaction performed under optimized conditions; 2. Detection of ADP as a product of the reaction using ADP-Glo™ system (Promega). The tested compounds indicated in Table 5 below were dissolved in DMSO, then transferred to the V-bottom PP plate to perform nine serial dilutions (in order to obtain dose-response curves) in 25% DMSO, as indicated in Table 5 below. The optimized conditions for performing DYRK1B in vitro kinase assay were as follows: [table] For compound testing, the following protocol was used: two mixes were prepared on ice, Mix 1 containing substrate, ATP and reaction buffer and Mix 2 containing reaction buffer and the kinase. 15 μL per well of Mix 1 was transferred to wells of a 96-well plate. […] Total reaction volume was 30 μL per well. The experiment was performed in duplicate for each data point being examined. Dose response curve for the positive control was carried out on each assay plate by adding the reference inhibitory compound staurosporine. For each test, three controls were also included: (i) 30 μL of the reaction mixture containing: reaction buffer, ATP, kinase, DMSO without substrate (quasi-positive control); (ii) 30 μL of the reaction mixture containing reaction buffer, substrate, ATP, DMSO without kinase (background control); (iii) 30 μL of the reaction mixture containing reaction buffer, substrate, kinase, ATP, DMSO (vehicle control). Final concentration of DMSO in the reaction was 2%. To detect the ADP amount produced during the kinase reaction, the commercially available kit ADP-Glo™ Kinase Assay (Promega, cat. No # V9103) was used. The protocol used for the detection was based on the Technical Bulletin of the ADP-Glo™ Kinase Assay (Promega) and was adapted to 96-well plate containing 30 μL reaction mixture as explained below. 30 μL of ADP-Glo™ Reagent was added to each well of a 96 well plate containing 30 μL of reaction mixture to terminate the kinase reaction and deplete the remaining ATP. The plate was incubated for 60 minutes on a shaker at rt. 60 μL of Kinase Detection Solution was then added to each well of 96-well plate containing 60 μL of the solution to convert ADP to ATP and to allow the newly synthesized ATP to be measured using a luciferase/luciferin reaction (ratio of kinase reaction volume to ADP Glo™ Reagent volume to Kinase Detection Solution volume was maintained at 1:1:2). The plate was incubated for 40 minutes on a shaker at rt, protected from light. Luminescence was measured in the plate reader, wherein the luminescent signal is proportional to the ADP concentration produced and thus correlates with kinase activity. After data normalization to controls (complete reaction mix and no-substrate control) and transforming X values (test compound concentrations) using: X=log(X), IC50 values were determined, using the GraphPad Prism 6.0 [log(agonist) vs. normalized response—Variable slope].

[2] = target: T2, DYRK1A (Homo sapiens, UniProt Q13627); experiment: DYRK1A in vitro kinase assay (ADP-Glo); assay type: biochemical; conditions: ATP 70 μM (Km), substrate 3 μM, enzyme 2 nM or 0.7 nM, 30 min, rt
T2 construct: purchased Carna Bioscence (Carna Biosciences) 04-130
Experimental: The compounds of the present invention were tested for their inhibitory activity against DYRK1A and DYRK1B kinases once or several times. When tested more than once, the data are reported herein as average value, wherein the average value, also referred to as the mean value, represents the sum of obtained values divided by the number of times tested.
DYRK-inhibitory activity of the compounds of the present invention was tested using the ADP-Glo™ assay as described in the following paragraphs. The procedure for determining the IC50 values with the ADP-Glo™ assay in in vitro kinase assays consists of two parts:
1. Kinase reaction performed under optimized conditions;
2. Detection of ADP as a product of the reaction using ADP-Glo™ system (Promega).
The tested compounds indicated in Table 5 below were dissolved in DMSO, then transferred to the V-bottom PP plate to perform nine serial dilutions (in order to obtain dose-response curves) in 25% DMSO, as indicated in Table 5 below.
The optimized conditions for performing DYRK1A in vitro kinase assay were as follows:
For compound testing, the following protocol was used: two mixes were prepared on ice, Mix 1 containing substrate, ATP and reaction buffer and Mix 2 containing reaction buffer and the kinase. 15 μL per well of Mix 1 was transferred to wells of a 96-well plate. Next, 2.5 μL of the pre-diluted compound to be tested was added to Mix 1, followed by the addition of 12.5 μL of Mix 2. Total reaction volume was 30 μL per well. The experiment was performed in duplicate for each data point being examined. Dose response curve for the positive control was carried out on each assay plate by adding the reference inhibitory compound staurosporine. For each test, three controls were also included: (i) 30 μL of the reaction mixture containing: reaction buffer, ATP, kinase, DMSO without substrate (quasi-positive control); (ii) 30 μL of the reaction mixture containing reaction buffer, substrate, ATP, DMSO without kinase (background control); (iii) 30 μL of the reaction mixture containing reaction buffer, substrate, kinase, ATP, DMSO (vehicle control). Final concentration of DMSO in the reaction was 2%. To detect the ADP amount produced during the kinase reaction, the commercially available kit ADP-Glo™ Kinase Assay (Promega, cat. No # V9103) was used. The protocol used for the detection was based on the Technical Bulletin of the ADP-Glo™ Kinase Assay (Promega) and was adapted to 96-well plate containing 30 μL reaction mixture as explained below.
30 μL of ADP-Glo™ Reagent was added to each well of a 96 well plate containing 30 μL of reaction mixture to terminate the kinase reaction and deplete the remaining ATP. The plate was incubated for 60 minutes on a shaker at rt. 60 μL of Kinase Detection Solution was then added to each well of 96-well plate containing 60 μL of the solution to convert ADP to ATP and to allow the newly synthesized ATP to be measured using a luciferase/luciferin reaction (ratio of kinase reaction volume to ADP Glo™ Reagent volume to Kinase Detection Solution volume was maintained at 1:1:2). The plate was incubated for 40 minutes on a shaker at rt, protected from light. Luminescence was measured in the plate reader, wherein the luminescent signal is proportional to the ADP concentration produced and thus correlates with kinase activity.
After data normalization to controls (complete reaction mix and no-substrate control) and transforming X values (test compound concentrations) using: X=log(X), IC50 values were determined, using the GraphPad Prism 6.0 [log(agonist) vs. normalized response—Variable slope].

T1 sequence (Q9Y463 whole entry): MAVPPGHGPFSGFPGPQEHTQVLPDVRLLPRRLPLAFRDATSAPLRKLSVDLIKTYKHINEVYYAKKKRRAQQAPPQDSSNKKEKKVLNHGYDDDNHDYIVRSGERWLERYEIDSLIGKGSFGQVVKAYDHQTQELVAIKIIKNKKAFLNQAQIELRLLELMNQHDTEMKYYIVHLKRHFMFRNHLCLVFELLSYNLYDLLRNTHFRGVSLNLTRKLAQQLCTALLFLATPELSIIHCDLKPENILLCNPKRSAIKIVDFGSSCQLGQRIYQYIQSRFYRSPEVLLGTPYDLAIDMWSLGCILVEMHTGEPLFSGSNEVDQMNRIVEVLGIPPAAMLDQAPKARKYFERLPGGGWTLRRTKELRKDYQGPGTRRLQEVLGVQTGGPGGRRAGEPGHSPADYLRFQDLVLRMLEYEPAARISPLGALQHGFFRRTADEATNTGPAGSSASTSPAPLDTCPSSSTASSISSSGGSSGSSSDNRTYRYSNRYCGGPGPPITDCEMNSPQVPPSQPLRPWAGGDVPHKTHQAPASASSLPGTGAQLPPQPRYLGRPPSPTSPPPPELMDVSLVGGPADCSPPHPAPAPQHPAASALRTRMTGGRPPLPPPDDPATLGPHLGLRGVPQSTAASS

Row | IC50 [1] [µM] | IC50 [2] [µM] | Compound
1 | < 0.01 | 0.01 to 0.1 | C=CCN(C)Cc1cnc2[nH]cc(-c3cc(F)c4nccc(-c5cccnc5)c4c3)c2c1 [Example 52, ({3-[8-Fluoro-4-(pyridin-3-yl)quinolin-6-yl]-1H-pyrrolo[2,3-b]pyridin-5-yl}methyl)(methyl)(prop-2-en-1-yl)amine]
2 | < 0.01 | 0.01 to 0.1 | O=C(NCc1ccccc1)c1cnc2[nH]cc(-c3cc(Cl)c4ncccc4c3)c2c1 [Example 32, N-Benzyl-3-(8-chloroquinolin-6-yl)-1H-pyrrolo[2,3-b]pyridine-5-carboxamide]
3 | < 0.01 | < 0.01 | CNC(=O)c1cnc2[nH]cc(-c3cc(F)c4nccc(N5CCC[C@H](N)C5)c4c3)c2c1 [Example 43, 3-{4-[(3S)-3-Aminopiperidin-1-yl]-8-fluoroquinolin-6-yl}-N-methyl-1H-pyrrolo[2,3-b]pyridine-5-carboxamide hydrochloride]
4 | < 0.01 | < 0.01 | CNC(=O)c1cnc2[nH]cc(-c3cc(F)c4nccc(N5CCC[C@@H](N)C5)c4c3)c2c1 [Example 41, 3-{4-[(3R)-3-Aminopiperidin-1-yl]-8-fluoroquinolin-6-yl}-N-methyl-1H-pyrrolo[2,3-b]pyridine-5-carboxamide hydrochloride]
5 | < 0.01 | < 0.01 | Clc1cc(-c2c[nH]c3ncccc23)cc2cccnc12 [Example 11, 8-Chloro-6-{1H-pyrrolo[2,3-b]pyridin-3-yl}quinoline hydrochloride]
6 | 0.01 to 0.1 | > 0.1 | COc1cc(-c2c[nH]c3ncc(C(N)=O)cc23)cc2c(-c3cccnc3)ccnc12 [Example 45, 3-[8-Methoxy-4-(pyridin-3-yl)quinolin-6-yl]-1H-pyrrolo[2,3-b]pyridine-5-carboxamide]
7 | < 0.01 | < 0.01 | CC(=O)Nc1cnc2[nH]cc(-c3cc(F)c4nccc(-c5cccnc5)c4c3)c2c1 [Example 46, N-{3-[8-Fluoro-4-(pyridin-3-yl)quinolin-6-yl]-1H-pyrrolo[2,3-b]pyridin-5-yl}acetamide]
8 | < 0.01 | < 0.01 | c1cnc2[nH]cc(-c3ccc4ncc(NCc5ccoc5)cc4c3)c2c1 [Example 16, N-(Furan-3-ylmethyl)-6-{1H-pyrrolo[2,3-b]pyridin-3-yl}quinolin-3-amine]
9 | < 0.01 | < 0.01 | Fc1cc(-c2c[nH]c3ncc(CNCc4ccccc4)cc23)cc2c(-c3cccnc3)ccnc12 [Example 50, Benzyl({3-[8-fluoro-4-(pyridin-3-yl)quinolin-6-yl]-1H-pyrrolo[2,3-b]pyridin-5-yl}methyl)amine]

Second part, the compound before the results:

Row | Compound | IC50 [1] [µM] | IC50 [2] [µM]
10 | C=CCN(C)C(=O)c1cnc2[nH]cc(-c3cc(Cl)c4ncccc4c3)c2c1 [Example 28, 3-(8-Chloroquinolin-6-yl)-N-methyl-N-(prop-2-en-1-yl)-1H-pyrrolo[2,3-b]pyridine-5-carboxamide] | < 0.01 | 0.01 to 0.1
11 | C=CCN(C)C(=O)c1cnc2[nH]cc(-c3cc(F)c4ncccc4c3)c2c1 [Example 27, 3-(8-Fluoroquinolin-6-yl)-N-methyl-N-(prop-2-en-1-yl)-1H-pyrrolo[2,3-b]pyridine-5-carboxamide] | < 0.01 | < 0.01
12 | C=CCN(C)C(=O)c1cnc2[nH]cc(-c3cc(OC)c4ncccc4c3)c2c1 [Example 26, 3-(8-Methoxyquinolin-6-yl)-N-methyl-N-(prop-2-en-1-yl)-1H-pyrrolo[2,3-b]pyridine-5-carboxamide] | > 0.1 | > 0.1
13 | N[C@H]1CC[C@H](Nc2c([N+](=O)[O-])cnc3ccc(-c4c[nH]c5ncc(C(=O)NCc6cccnc6)cc45)cc23)CC1 [Example 59, 3-{4-[(4-Aminocyclohexyl)amino]-3-nitroquinolin-6-yl}-N-(pyridin-3-ylmethyl)-1H-pyrrolo[2,3-b]pyridine-5-carboxamide hydrochloride] | 0.01 to 0.1 | 0.01 to 0.1
14 | NC(=O)c1cnc2[nH]cc(-c3cc(F)c4ncccc4c3)c2c1 [Example 33, 3-(8-Fluoroquinolin-6-yl)-1H-pyrrolo[2,3-b]pyridine-5-carboxamide] | < 0.01 | < 0.01
15 | CNC(=O)c1cnc2[nH]cc(-c3ccc4ncc(NCc5cccc(Cl)c5)c(N5CCOCC5)c4c3)c2c1 [Example 56, 3-(3-{[(3-Chlorophenyl)methyl]amino}-4-(morpholin-4-yl)quinolin-6-yl)-N-methyl-1H-pyrrolo[2,3-b]pyridine-5-carboxamide] | < 0.01 | 0.01 to 0.1
16 | CNC(=O)c1cnc2[nH]cc(-c3ccc4nccc(Cl)c4c3)c2c1 [Example 24, 3-(4-Chloroquinolin-6-yl)-N-methyl-1H-pyrrolo[2,3-b]pyridine-5-carboxamide] | < 0.01 | < 0.01
17 | CNC(=O)c1cnc2[nH]cc(-c3cc(F)c4nccc(-c5cccnc5)c4c3)c2c1 [Example 39, 3-[8-Fluoro-4-(pyridin-3-yl)quinolin-6-yl]-N-methyl-1H-pyrrolo[2,3-b]pyridine-5-carboxamide] | < 0.01 | < 0.01
18 | C=CC1CN2CCC1CC2[C@H](O)c1ccnc2ccc(-c3c[nH]c4ncccc34)cc12 (stereo in doubt) [Example 9, {5-Ethenyl-1-azabicyclo[2.2.2]octan-2-yl}(6-{1H-pyrrolo[2,3-b]pyridin-3-yl}quinolin-4-yl)methanol] | < 0.01 | < 0.01
